Measurements taken from doi:10.1101/209783v1 (biorxiv, 2017).

Target: Kir6.2/SUR2A KATP channel (mKir6.2 + rSUR2A) (Rattus norvegicus, UniProt Q61743+Q63563)
Experiment: inside-out excised patch clamp, Hill fit
Type: biochemical

Kir6.2/SUR2A KATP channel (mKir6.2 + rSUR2A), sequence (Q63563 whole entry): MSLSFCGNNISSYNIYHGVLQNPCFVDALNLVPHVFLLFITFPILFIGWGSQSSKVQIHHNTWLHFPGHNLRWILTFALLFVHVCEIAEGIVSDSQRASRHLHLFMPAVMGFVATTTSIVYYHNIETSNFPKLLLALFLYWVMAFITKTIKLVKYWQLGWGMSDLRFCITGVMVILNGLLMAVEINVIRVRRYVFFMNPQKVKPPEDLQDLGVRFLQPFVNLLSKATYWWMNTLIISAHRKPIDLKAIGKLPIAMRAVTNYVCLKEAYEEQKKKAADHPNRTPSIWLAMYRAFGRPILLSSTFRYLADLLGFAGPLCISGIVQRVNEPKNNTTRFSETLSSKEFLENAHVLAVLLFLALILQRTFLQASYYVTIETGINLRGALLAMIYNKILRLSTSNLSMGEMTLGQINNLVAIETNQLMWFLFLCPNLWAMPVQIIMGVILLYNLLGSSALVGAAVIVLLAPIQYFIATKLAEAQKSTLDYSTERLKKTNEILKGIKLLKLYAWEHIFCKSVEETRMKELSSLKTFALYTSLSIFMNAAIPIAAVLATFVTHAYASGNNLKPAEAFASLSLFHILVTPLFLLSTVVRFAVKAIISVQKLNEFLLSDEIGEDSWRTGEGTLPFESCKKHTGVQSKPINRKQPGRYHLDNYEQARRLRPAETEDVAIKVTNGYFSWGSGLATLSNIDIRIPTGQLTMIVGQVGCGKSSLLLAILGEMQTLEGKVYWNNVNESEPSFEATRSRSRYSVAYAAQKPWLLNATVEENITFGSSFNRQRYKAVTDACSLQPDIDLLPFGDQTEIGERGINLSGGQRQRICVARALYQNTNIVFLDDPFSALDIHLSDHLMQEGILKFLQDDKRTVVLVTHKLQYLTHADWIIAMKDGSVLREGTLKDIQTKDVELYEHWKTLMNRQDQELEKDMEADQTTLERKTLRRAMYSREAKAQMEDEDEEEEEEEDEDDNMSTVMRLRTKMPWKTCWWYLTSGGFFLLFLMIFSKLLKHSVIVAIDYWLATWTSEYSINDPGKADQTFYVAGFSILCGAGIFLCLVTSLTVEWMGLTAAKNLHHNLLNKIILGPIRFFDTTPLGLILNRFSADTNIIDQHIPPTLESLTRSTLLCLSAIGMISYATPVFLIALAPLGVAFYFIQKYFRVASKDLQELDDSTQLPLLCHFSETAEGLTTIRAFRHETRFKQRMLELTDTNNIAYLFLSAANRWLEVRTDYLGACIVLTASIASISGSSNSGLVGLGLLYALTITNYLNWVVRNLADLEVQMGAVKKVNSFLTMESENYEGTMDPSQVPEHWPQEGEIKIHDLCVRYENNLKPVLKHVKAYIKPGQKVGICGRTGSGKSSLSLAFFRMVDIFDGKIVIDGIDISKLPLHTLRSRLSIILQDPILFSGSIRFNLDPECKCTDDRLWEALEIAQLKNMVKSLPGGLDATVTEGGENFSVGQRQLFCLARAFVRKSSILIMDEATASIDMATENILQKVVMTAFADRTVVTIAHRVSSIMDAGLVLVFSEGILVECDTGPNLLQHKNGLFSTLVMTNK
Kir6.2/SUR2A KATP channel (mKir6.2 + rSUR2A), sequence (Q61743 whole entry): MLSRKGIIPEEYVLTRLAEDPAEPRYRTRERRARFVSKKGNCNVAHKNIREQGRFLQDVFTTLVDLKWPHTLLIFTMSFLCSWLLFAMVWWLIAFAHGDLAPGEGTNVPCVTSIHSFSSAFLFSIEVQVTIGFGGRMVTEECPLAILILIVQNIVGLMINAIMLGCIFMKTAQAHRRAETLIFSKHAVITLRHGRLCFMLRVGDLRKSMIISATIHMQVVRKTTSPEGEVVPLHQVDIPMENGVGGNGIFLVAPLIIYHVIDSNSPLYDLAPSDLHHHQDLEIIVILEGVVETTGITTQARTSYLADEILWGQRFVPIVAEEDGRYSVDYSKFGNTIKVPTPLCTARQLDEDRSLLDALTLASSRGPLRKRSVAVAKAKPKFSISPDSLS

| SMILES | IC50 [µM] |
| --- | --- |
| Nc1ncnc2c1ncn2[C@@H]1O[C@H](COP(=O)(O)OP(=O)(O)OP(=O)(O)O)[C@@H](O)[C@H]1O [ATP] | 14.4 ± 2.3 |
| COc1ccc(Cl)cc1C(=O)NCCc1ccc(S(=O)(=O)NC(=O)NC2CCCCC2)cc1 [glibenclamide] | 0.0195 ± 0.0061 |
